Reference: ChEMBL document CHEMBL1201862, “PubChem BioAssay data set” (2004)
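Step 1: Grow cells in 96-well plates. Step 2: Expose to compound for 48 hours at 5 concentrations. Step 3: Interpolate endpoints linearly; if unreached, use highest concentration. GI50 = concentration required for 50% inhibition of growth.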 Activity calls are given as the source filed them. Rule as the data show it: active = GI50 up to about 1.1 µM and inactive = higher.

Key:
Assay in all cases: inhibition of tumour cell growth, NCI panel, 48 h
[1] = tested on: SF-268
[2] = tested on: HOP-18
[3] = tested on: IGROV-1
[4] = tested on: TK-10
[5] = tested on: DMS-273
[6] = tested on: SN12C
[7] = tested on: SR
[8] = tested on: M14
[9] = tested on: NCI-H522
[10] = tested on: LXFL 529
[11] = tested on: SK-OV-3
[12] = tested on: A549
[13] = tested on: KM-20L2
[14] = tested on: UACC-257
[15] = tested on: HCC 2998
[16] = tested on: RXF 393
[17] = tested on: NCI-H23
[18] = tested on: SNB-78
[19] = tested on: CAKI-1
[20] = tested on: OVCAR-8
[21] = tested on: SNB-75
[22] = tested on: ACHN
[23] = tested on: SW-620
[24] = tested on: SF-539
[25] = tested on: SK-MEL-5
[26] = tested on: SNB-19
[27] = tested on: HOP-92
[28] = tested on: SK-MEL-28
[29] = tested on: SK-MEL-2
[30] = tested on: RXF 631
[31] = tested on: NCI-H460
[32] = tested on: HT-29
[33] = tested on: MOLT-4
[34] = tested on: KM12
[35] = tested on: HCT-116
[36] = tested on: RPMI-8226
[37] = tested on: U-251
[38] = tested on: HOP-62
[39] = tested on: OVCAR-4
[40] = tested on: LOX IMVI
[41] = tested on: UACC-62
[42] = tested on: SF-295
[43] = tested on: UO-31
[44] = tested on: 786-0
[45] = tested on: HL-60
[46] = tested on: CCRF-CEM
[47] = tested on: OVCAR-3
[48] = tested on: K562
[49] = tested on: A498
[50] = tested on: HCT-15
[51] = tested on: EKVX
[52] = tested on: Malme-3M
[53] = tested on: COLO 205
[54] = tested on: NCI-H226
[55] = tested on: OVCAR-5
[56] = tested on: DMS-114
[57] = tested on: M19-MEL
[58] = tested on: XF498
[59] = tested on: DLD-1

For `COC(=O)CCC(=O)C(CC(=O)OC)C(=O)CCC(=O)NCCc1ccccc1` (stereo not given), which GI50 [1] is on record?
The GI50 was > 100 µM (inactive).

What about the GI50 [2] of the same molecule?
Its GI50 is > 100 µM (inactive).

And the GI50 [3]?
Its GI50 is > 100 µM (inactive).

And the GI50 [4]?
The GI50 was > 100 µM (inactive).

And the GI50 [5]?
The GI50 was > 100 µM (inactive).

And the GI50 [6]?
Its GI50 is > 100 µM (inactive).

And the GI50 [7]?
The GI50 was > 100 µM (inactive).

And the GI50 [8]?
The GI50 was > 100 µM (inactive).

What about the GI50 [9] of the same molecule?
The GI50 was > 100 µM (inactive).

What about the GI50 [10] of the same molecule?
The GI50 was > 100 µM (inactive).

And the GI50 [11]?
The GI50 was > 100 µM (inactive).

And the GI50 [12]?
Its GI50 is > 100 µM (inactive).

And the GI50 [13]?
The GI50 was > 100 µM (inactive).

And the GI50 [14]?
Its GI50 is > 100 µM (inactive).

What about the GI50 [15] of the same molecule?
The GI50 was > 100 µM (inactive).

And the GI50 [16]?
The GI50 was > 100 µM (inactive).

What about the GI50 [17] of the same molecule?
Its GI50 is > 100 µM (inactive).

What about the GI50 [18] of the same molecule?
Its GI50 is > 100 µM (inactive).

What about the GI50 [19] of the same molecule?
Its GI50 is > 100 µM (inactive).

What about the GI50 [20] of the same molecule?
Its GI50 is > 100 µM (inactive).

And the GI50 [21]?
The GI50 was > 100 µM (inactive).

What about the GI50 [22] of the same molecule?
The GI50 was > 100 µM (inactive).

What about the GI50 [23] of the same molecule?
Its GI50 is > 100 µM (inactive).

And the GI50 [24]?
Its GI50 is > 100 µM (inactive).

And the GI50 [25]?
Its GI50 is > 100 µM (inactive).

And the GI50 [26]?
The GI50 was > 100 µM (inactive).

What about the GI50 [27] of the same molecule?
Its GI50 is > 100 µM (inactive).

And the GI50 [28]?
Its GI50 is > 100 µM (inactive).

What about the GI50 [29] of the same molecule?
Its GI50 is > 100 µM (inactive).

And the GI50 [30]?
The GI50 was > 100 µM (inactive).

What about the GI50 [31] of the same molecule?
Its GI50 is > 100 µM (inactive).

What about the GI50 [32] of the same molecule?
The GI50 was > 100 µM (inactive).

And the GI50 [33]?
The GI50 was > 100 µM (inactive).

And the GI50 [34]?
The GI50 was > 100 µM (inactive).

And the GI50 [35]?
Its GI50 is > 100 µM (inactive).

What about the GI50 [36] of the same molecule?
Its GI50 is > 100 µM (inactive).

What about the GI50 [37] of the same molecule?
Its GI50 is > 100 µM (inactive).

What about the GI50 [38] of the same molecule?
The GI50 was > 100 µM (inactive).

And the GI50 [39]?
The GI50 was > 100 µM (inactive).

What about the GI50 [40] of the same molecule?
Its GI50 is > 100 µM (inactive).

What about the GI50 [41] of the same molecule?
Its GI50 is > 100 µM (inactive).

What about the GI50 [42] of the same molecule?
The GI50 was > 100 µM (inactive).

What about the GI50 [43] of the same molecule?
The GI50 was > 100 µM (inactive).

And the GI50 [44]?
Its GI50 is > 100 µM (inactive).

What about the GI50 [45] of the same molecule?
The GI50 was > 100 µM (inactive).

And the GI50 [46]?
Its GI50 is > 100 µM (inactive).

What about the GI50 [47] of the same molecule?
The GI50 was > 100 µM (inactive).

And the GI50 [48]?
Its GI50 is > 100 µM (inactive).

What about the GI50 [49] of the same molecule?
Its GI50 is > 100 µM (inactive).

What about the GI50 [50] of the same molecule?
Its GI50 is greater than 100 µM.

And the GI50 [51]?
Its GI50 is > 100 µM (inactive).

And the GI50 [52]?
The GI50 was > 100 µM (inactive).

And the GI50 [53]?
Its GI50 is > 100 µM (inactive).

And the GI50 [54]?
The GI50 was > 100 µM (inactive).

What about the GI50 [55] of the same molecule?
Its GI50 is > 100 µM (inactive).

Which results are given for `CC1(C)C2=CCCC(=O)[C@@]2(C)CC[C@@H]1O`?
GI50 [1]: > 100 µM (inactive); GI50 [56]: > 100 µM (inactive); GI50 [2]: > 100 µM (inactive); GI50 [3]: > 100 µM (inactive); GI50 [4]: > 100 µM (inactive); GI50 [5]: > 100 µM (inactive); GI50 [6]: > 100 µM (inactive); GI50 [7]: > 100 µM (inactive); GI50 [8]: > 100 µM (inactive); GI50 [9]: > 100 µM (inactive); GI50 [10]: > 100 µM (inactive); GI50 [11]: > 100 µM (inactive); GI50 [12]: > 100 µM (inactive); GI50 [13]: > 100 µM (inactive); GI50 [14]: > 100 µM (inactive); GI50 [15]: > 100 µM (inactive); GI50 [16]: > 100 µM (inactive); GI50 [17]: > 100 µM (inactive); GI50 [18]: > 100 µM (inactive); GI50 [57]: > 100 µM (inactive); GI50 [19]: > 100 µM (inactive); GI50 [20]: > 100 µM (inactive); GI50 [21]: > 100 µM (inactive); GI50 [22]: > 100 µM (inactive); GI50 [23]: > 100 µM (inactive); GI50 [24]: > 100 µM (inactive); GI50 [25]: > 100 µM (inactive); GI50 [26]: > 100 µM (inactive); GI50 [27]: > 100 µM (inactive); GI50 [28]: > 100 µM (inactive); GI50 [29]: 5.97 µM (inactive); GI50 [31]: > 100 µM (inactive); GI50 [32]: > 100 µM (inactive); GI50 [33]: > 100 µM (inactive); GI50 [34]: > 100 µM (inactive); GI50 [35]: > 100 µM (inactive); GI50 [36]: > 100 µM (inactive); GI50 [37]: > 100 µM (inactive); GI50 [38]: > 100 µM (inactive); GI50 [39]: > 100 µM (inactive); GI50 [40]: > 100 µM (inactive); GI50 [41]: > 100 µM (inactive); GI50 [42]: > 100 µM (inactive); GI50 [43]: > 100 µM (inactive); GI50 [44]: > 100 µM (inactive); GI50 [45]: > 100 µM (inactive); GI50 [46]: > 100 µM (inactive); GI50 [58]: > 100 µM (inactive); GI50 [59]: > 100 µM (inactive); GI50 [47]: > 100 µM (inactive); GI50 [48]: > 100 µM (inactive); GI50 [51]: > 100 µM (inactive); GI50 [53]: > 100 µM (inactive); GI50 [54]: > 100 µM (inactive); GI50 [55]: > 100 µM (inactive)
